# Measurements reported in article PMC3057289 (2011).
# Target: T1, TRPC5 (Homo sapiens, UniProt Q9UL62)
# T1 sequence (Q9UL62 1-973): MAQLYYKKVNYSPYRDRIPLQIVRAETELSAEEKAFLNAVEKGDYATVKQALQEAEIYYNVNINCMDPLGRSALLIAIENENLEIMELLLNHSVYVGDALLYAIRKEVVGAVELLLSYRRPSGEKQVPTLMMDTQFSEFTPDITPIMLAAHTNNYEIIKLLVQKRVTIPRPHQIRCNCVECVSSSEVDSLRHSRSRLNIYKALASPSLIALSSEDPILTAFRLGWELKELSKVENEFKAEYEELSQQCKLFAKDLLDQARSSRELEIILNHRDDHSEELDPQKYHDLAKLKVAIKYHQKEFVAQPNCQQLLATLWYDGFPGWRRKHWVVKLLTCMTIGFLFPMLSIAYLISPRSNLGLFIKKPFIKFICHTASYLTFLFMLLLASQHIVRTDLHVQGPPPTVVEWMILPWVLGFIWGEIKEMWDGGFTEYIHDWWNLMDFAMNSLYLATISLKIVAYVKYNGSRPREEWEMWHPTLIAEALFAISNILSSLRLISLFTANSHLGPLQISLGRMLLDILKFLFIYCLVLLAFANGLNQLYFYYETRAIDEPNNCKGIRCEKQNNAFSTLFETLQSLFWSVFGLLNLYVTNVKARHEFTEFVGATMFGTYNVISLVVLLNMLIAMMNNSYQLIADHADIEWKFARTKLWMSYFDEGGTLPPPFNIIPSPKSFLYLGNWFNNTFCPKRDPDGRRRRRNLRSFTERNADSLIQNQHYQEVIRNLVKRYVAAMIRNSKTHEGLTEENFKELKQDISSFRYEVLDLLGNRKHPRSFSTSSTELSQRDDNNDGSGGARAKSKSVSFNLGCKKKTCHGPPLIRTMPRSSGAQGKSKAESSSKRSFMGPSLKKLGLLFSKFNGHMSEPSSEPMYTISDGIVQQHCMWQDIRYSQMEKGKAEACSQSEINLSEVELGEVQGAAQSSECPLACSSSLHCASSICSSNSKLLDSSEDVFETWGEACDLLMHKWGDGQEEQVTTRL
# Type: cell-based
compound,measurement,value
"CC(=O)[C@H]1CC[C@H]2[C@@H]3CCC4=CC(=O)CC[C@]4(C)[C@H]3CC[C@]12C [prog, progesterone]",IC50,5 µM
